Tested on: Plasmodium berghei
Assay: Luciferase/luciferin-expressing antifolate-resistant parasites were used to infect a culture of HepG2 cells that were pre-incubated with compounds. Infected hepatocytes emit light due to the luciferase reaction. Assay results are presented as the percent inhibition of light emission compared to control. […]
Type: functional
Settings: sporozoite; for IC50: read-out: LUCIFERASE INFECTION ASSAY - IC50; for IC90: read-out: LUCIFERASE INFECTION ASSAY - IC90

Compound | IC50 [µM] | IC90 [µM]
Cc1cccc(C)c1OCCOC(=O)c1[nH]nc2ccccc12 | > 10 | > 10
c1nc(NCC2(N3CCOCC3)CCCCC2)c2ccsc2n1 | > 10 | > 10
Cc1ccc2c(CC(=O)Nc3sccc3C(N)=O)coc2c1 | > 10 | > 10
Cc1cc(C)cc(C(=O)Nc2nc3ccccc3[nH]2)c1 | 7.33 | > 10
CN(CCOc1ccc(Br)cc1)CC(O)COc1ccc(C#N)cc1 (stereo unspecified) | 8.69 | > 10
COc1ccc(Nc2nc(CN3CCN(Cc4ccc(C#N)cc4)CC3)cs2)cc1 | > 10 | > 10
CNS(=O)(=O)c1ccc(CNc2ncnc3cc(-c4ccc(OC)cc4)sc23)s1 | 0.653 | 2.1
CCc1cccc2c(/C=C3\C(=O)Nc4ccccc43)c[nH]c12 | 6.04 | > 10
O=S(=O)(c1ccc(C2=NNC(=NC3CC3)SC2)cc1)N1CCCCC1 | > 10 | > 10
Cc1noc2nc(C(C)C)cc(C(=O)Nc3nc4ccccc4[nH]3)c12 | > 10 | > 10
CCCCNC(=O)c1c(NC(=O)c2c(F)ccc(F)c2F)nc2ccccn12 | > 8.45 | > 8.45
O=C(Nc1ccc(N2CCOCC2)cc1)c1ccccc1Nc1ccc(F)cc1 | > 10 | > 10
NC(=O)NC(=O)C(Nc1ccc(Oc2ccccc2)cc1)c1ccccc1 (stereo unspecified) | > 10 | > 10
O=C(Nc1ccc2c[nH]nc2c1)c1cccc(Oc2ccccc2)c1 | > 10 | > 10
N#Cc1ccc(CN2CCCN(c3ncnc4sccc34)CC2)cc1 | 1.67 | > 10
CCCN(CC(=O)Nc1cc(Cl)ccc1Cl)CC(=O)Nc1sccc1C(N)=O | > 10 | > 10
Cc1nn2c(nc(NCCCc3n[nH]c(N)c3C#N)c3ccccc32)c1Cl | > 10 | > 10
N#Cc1ccnc(N2CCN(c3ncnc4scc(-c5ccccc5)c34)CC2)c1 | > 10 | > 10
c1ccc(-c2cc(NCc3cccs3)nc3ccccc23)cc1 | > 10 | > 10
Cc1sc2nc(-c3cccnc3)nc(NC3CCC(O)CC3)c2c1-c1ccccc1 (stereo unspecified) | > 10 | > 10
Cc1ccc(C2=NNC(=Nc3cccc(S(=O)(=O)N(C)C)c3)SC2)cc1 | 3.5 | 4.33
c1ccc(-c2csc3ncnc(N4CCN(c5cnccn5)CC4)c23)cc1 | > 10 | > 10

Compound | IC50 [µM] | IC90 [µM]
O=C(Nc1cccc(S(=O)(=O)Nc2ccc(Cl)cc2)c1)c1[nH]nc2ccccc12 | 8.98 | > 10
Cc1noc(C)c1C(=O)Nc1nc(-c2c[nH]c3ccccc23)cs1 | > 10 | > 10
Oc1cccc(Nc2nc(N3CCCCC3)c3ccccc3n2)c1 | > 10 | > 10
O=C(CCc1c(-c2ccc(F)cc2)[nH]c2ccc(F)cc12)N1CCN(c2ccccn2)CC1 | 3.16 | 3.87
CC(=N)C(C#N)c1csc(NC(=O)c2cc(-c3ccccc3)nc3c2cnn3C(C)C)n1 (stereo unspecified) | 6.35 | 9.99
CC(=O)c1ccc(OCC(O)CN2CCC(c3c[nH]c4ccccc34)CC2)cc1 (stereo unspecified) | 5.84 | > 10
O=C(Nc1cccc(-c2nc3ccccc3[nH]2)c1)c1cccc(S(=O)(=O)N2CCCC2)c1 | > 10 | > 10
Cc1cccc(-n2cc(-c3ccccc3)c3c(N4CCN(CCO)CC4)ncnc32)c1 | > 10 | > 10
Cc1cc(-c2csc(Nc3ccccn3)n2)c(C)n1-c1nccs1 | > 10 | > 10
CC(C)n1ncc2cc(C(=O)Nc3nc4ccccc4s3)cnc21 | 0.00908 | 1.97
COc1ccc2c(-c3ccccc3)cc(SCC(=O)Nc3sccc3C(N)=O)nc2c1 | 7.85 | 9.16
Nc1nc(Sc2ncnc3ccsc23)nc2sccc12 | 9.85 | > 10
O=C(Nc1ccc(CNc2ncnc3cc(Cl)ccc23)cc1)C1CC1 | 0.544 | 1.46
Cc1ccc(CCC2CCN(C(C)C(=O)Nc3cccc(S(N)(=O)=O)c3)CC2)cc1 (stereo unspecified) | 6.94 | > 10
O=S(=O)(c1ccc(N=C2NN=C(c3ccc4ccccc4c3)CS2)cc1)N1CCOCC1 | 4.82 | 9.33
Cc1ccc(C(=O)NCc2ccc(-c3ccc(Cl)cc3)o2)cc1NC(=O)c1ccco1 | > 10 | > 10
COCCNc1nc(-c2c(-c3ccccc3)[nH]c3ccccc23)cs1 | > 10 | > 10
O=C(NCCCn1ccc2ccccc21)Nc1ccc(Cl)c(Cl)c1 | > 10 | > 10
COc1ccc(NC(=O)c2ccc(-n3cnc4ccccc43)cc2)cc1Cl | 8.58 | > 10
O=C(Nc1cc([N+](=O)[O-])ccc1Cl)Nc1ccccc1-c1nc2ccccc2[nH]1 | > 10 | > 10
CCS(=O)(=O)c1ccc2oc(NC(=O)C3CCC3)nc2c1 | > 10 | > 10
Cc1cc(-c2cc(C(=O)NCCN3CCOCC3)c3cnn(C(C)C)c3n2)c(C)s1 | > 10 | > 10

Compound | IC50 [µM] | IC90 [µM]
CC(C#N)Sc1nc(Nc2ccccc2)c2ccccc2n1 (stereo unspecified) | > 10 | > 10
O=C(CN1CCN(Cc2csc(Nc3cccc(C(F)(F)F)c3)n2)CC1)N1CCCC1 | > 10 | > 10
CN(CC(=O)Nc1ccc(Cl)c(C(F)(F)F)c1)CC(=O)Nc1ccc(Cl)cn1 | > 10 | > 10
Cc1ccc2nc(NC(=O)c3cccc(Cl)c3Cl)c(C(=O)NC3CCCC3)n2c1 | > 7.65 | > 7.65
Cc1ccc(NC(=O)c2cc(-c3ccc4c(c3)OCCO4)nc3c2cnn3C(C)C)nc1 | > 10 | > 10
Clc1ccccc1Oc1ccc(Nc2ccc3nnnn3n2)cc1 | > 10 | > 10
COc1ccc(-c2nc(NC(=O)c3ccc4nc[nH]c4c3)sc2C)cc1 | > 10 | > 10
CCCNC(=O)c1c(NC(=O)c2cccc(Cl)c2Cl)nc2ccc(C)cn12 | > 8.14 | > 8.14
COc1ccc(-c2csc3ncnc(NCCC(C)C)c23)cc1 | > 10 | > 10
O=C(Nc1nc2ccccn2c1C(=O)NC1CCCCC1)c1c(F)ccc(F)c1F | > 7.93 | > 7.93
Cc1ccc(F)c(Nc2ncnc3sccc23)c1 | > 10 | > 10
CC(=O)c1c[nH]c(C(=O)Nc2nc(C)c(-c3ccccn3)s2)c1 | > 10 | > 10
Clc1ccc(-c2csc3ncnc(NCc4ccco4)c23)cc1 | > 10 | > 10
Fc1ccc(-c2cc3ncnc(NC4CC4)c3s2)cc1 | > 10 | > 10
Clc1ccc2c(Sc3nnc4ccccn34)ccnc2c1 | > 10 | > 10
Cc1cc(C)cc(NC(=O)CNCCCn2ccc3ccccc32)c1 | > 10 | > 10
O=C(Nc1cccc(Cl)c1)Nc1nc2ccccc2[nH]1 | > 10 | > 10
Cc1cc(C(=O)Nc2nc3c(C)cccn3c2C(=O)NC2CCCC2)c(C)o1 | > 8.67 | > 8.67
O=C(Nc1ncccc1O)c1ccc(-c2ccccc2)cc1 | 4.59 | 8
CC(C)n1ncc2cc(C(=O)Nc3nc(-c4ccccn4)cs3)cnc21 | 1.07 | 2.1
COc1cc(C(=O)Nc2nc3ccccc3[nH]2)ccc1C | 5.35 | 8.73
O=C(Cc1c(F)cccc1Cl)Nc1ccccc1-c1nc2ccccc2[nH]1 | 1.73 | 7.35

Compound | IC50 [µM] | IC90 [µM]
COc1ccc(-c2cc3ncnc(NCc4ccc(S(=O)(=O)N5CCCC5)s4)c3s2)cc1 | 3.52 | 4.46
CNC(=O)NC(=O)CNc1ccc(C(F)(F)F)cc1 | > 10 | > 10
Cc1sc2nc(CN3CCCC3)nc(Oc3ccc4ccncc4c3)c2c1C | 9.51 | > 10
COc1ccc2c(-c3ccccc3)cc(NCCc3ccc(S(N)(=O)=O)cc3)nc2c1 | 8.55 | > 10
NS(=O)(=O)c1ccc(CCNc2cc(-c3ccccc3)c3cc4c(cc3n2)OCCO4)cc1 | 3.43 | 6.08
CC(C)CCN(C(=O)CN1c2ccccc2CC1C)c1c(N)n(Cc2ccccc2)c(=O)[nH]c1=O (stereo unspecified) | > 10 | > 10
Cn1nnnc1Sc1ncnc2cc(-c3ccc(F)cc3)sc12 | > 10 | > 10
CN1CCN(c2nc(-c3c(-c4ccc(F)cc4)[nH]c4ccccc34)cs2)CC1 | > 10 | > 10
Cc1ccccc1CNc1ncnc2sccc12 | 5.22 | > 10
COc1cc(CNc2ncnc3sc(-c4ccccc4)cc23)ccn1 | 8.74 | > 10
CCC(C)NC(=O)c1c(NC(=O)c2cc(F)c(F)cc2F)nc2ccc(C)cn12 (stereo unspecified) | 0.917 | 1.1
CC(C)n1ncc2c(C(=O)NCCCn3ccc4ccccc43)cc(C3CC3)nc21 | > 10 | > 10
Clc1ccc2c(NCc3ccc(N4CCOCC4)nc3)ncnc2c1 | > 10 | > 10
CCN(CC)S(=O)(=O)c1ccc(-c2csc(Nc3ccccn3)n2)cc1 | > 10 | > 10
NC(=O)c1cc(-c2ccccc2)sc1NC(=O)Nc1ccccc1F | 9.4 | > 10
O=C(Nc1ccc(N2CCOCC2)cc1)c1cccc(-c2nn[nH]n2)c1 | > 10 | > 10
c1ccc(-c2cc3c(NCc4ccccc4CN4CCOCC4)ncnc3s2)cc1 | > 10 | > 10
O=C(c1cnc2cc3c(cc2c1)OCCCO3)c1cc(F)ccc1O | 3.12 | 3.65
N#Cc1ccsc1NC(=O)CCN1CCN(Cc2c(F)cccc2Cl)CC1 | > 10 | > 10
CC1SC(=Nc2ccc(S(=O)(=O)N3CCOCC3)cc2)NN=C1C12CC3CC(CC(C3)C1)C2 (stereo unspecified) | > 10 | > 10
CC(Nc1ncnc2ccsc12)c1cccc2ccccc12 (stereo unspecified) | 2.13 | > 10
CCCn1c(NC(=O)c2ccc3ncsc3c2)nc2ccccc21 | 8.47 | 9.62

Reference: ChEMBL document CHEMBL4483862, “Open-source discovery of chemical leads for next-generation chemoprotective antimalarials” (2018)
